In ChEMBL document CHEMBL5465560, “Selectivity Literature for EUbOPEN Chemogenomic Library” (2024) one finds % of control and % of inhibition data, which are given here for seven compounds.

SMILES strings stand for the structures.

Experiment [1] addresses RAC-gamma serine/threonine-protein kinase (Homo sapiens, UniProt Q9Y243). The experiment in a line: Selectivity interaction (Ambit KINOMEscan and KiNATiv profiling in Jurkat cells) EUB0000090b AKT3. The class given is cell-based. The conditions noted are these: at 1 µM.
Experiment [2] addresses T1, 3-phosphoinositide-dependent protein kinase 1 (Homo sapiens) (UniProt O15530).
T1 sequence (whole entry): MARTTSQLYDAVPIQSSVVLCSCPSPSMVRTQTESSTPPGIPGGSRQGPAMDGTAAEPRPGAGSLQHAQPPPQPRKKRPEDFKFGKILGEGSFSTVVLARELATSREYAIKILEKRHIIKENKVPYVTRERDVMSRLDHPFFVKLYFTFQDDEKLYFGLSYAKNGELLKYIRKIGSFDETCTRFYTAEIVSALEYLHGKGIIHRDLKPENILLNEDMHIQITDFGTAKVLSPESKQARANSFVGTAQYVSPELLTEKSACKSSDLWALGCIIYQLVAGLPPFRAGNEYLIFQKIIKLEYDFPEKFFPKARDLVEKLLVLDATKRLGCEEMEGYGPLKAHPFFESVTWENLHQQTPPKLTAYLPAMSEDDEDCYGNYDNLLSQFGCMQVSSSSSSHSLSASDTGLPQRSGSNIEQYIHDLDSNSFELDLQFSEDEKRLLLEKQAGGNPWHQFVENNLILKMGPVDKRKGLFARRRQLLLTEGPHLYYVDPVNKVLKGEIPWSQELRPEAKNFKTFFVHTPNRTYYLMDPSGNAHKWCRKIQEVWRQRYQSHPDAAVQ
Description: Selectivity interaction (KinomeScan (DiscoverX)) EUB0000607a PDPK1. The conditions noted are these: at 10 µM.

The target of experiment [3] is Fibroblast growth factor receptor 1 (Homo sapiens, UniProt P11362). The experiment in a line: Selectivity interaction (KinomeScan (DiscoverX)) EUB0000655a FGFR1. Particulars: at 10 µM.
Fibroblast growth factor receptor 1, sequence (P11362 22-822 limits assumed): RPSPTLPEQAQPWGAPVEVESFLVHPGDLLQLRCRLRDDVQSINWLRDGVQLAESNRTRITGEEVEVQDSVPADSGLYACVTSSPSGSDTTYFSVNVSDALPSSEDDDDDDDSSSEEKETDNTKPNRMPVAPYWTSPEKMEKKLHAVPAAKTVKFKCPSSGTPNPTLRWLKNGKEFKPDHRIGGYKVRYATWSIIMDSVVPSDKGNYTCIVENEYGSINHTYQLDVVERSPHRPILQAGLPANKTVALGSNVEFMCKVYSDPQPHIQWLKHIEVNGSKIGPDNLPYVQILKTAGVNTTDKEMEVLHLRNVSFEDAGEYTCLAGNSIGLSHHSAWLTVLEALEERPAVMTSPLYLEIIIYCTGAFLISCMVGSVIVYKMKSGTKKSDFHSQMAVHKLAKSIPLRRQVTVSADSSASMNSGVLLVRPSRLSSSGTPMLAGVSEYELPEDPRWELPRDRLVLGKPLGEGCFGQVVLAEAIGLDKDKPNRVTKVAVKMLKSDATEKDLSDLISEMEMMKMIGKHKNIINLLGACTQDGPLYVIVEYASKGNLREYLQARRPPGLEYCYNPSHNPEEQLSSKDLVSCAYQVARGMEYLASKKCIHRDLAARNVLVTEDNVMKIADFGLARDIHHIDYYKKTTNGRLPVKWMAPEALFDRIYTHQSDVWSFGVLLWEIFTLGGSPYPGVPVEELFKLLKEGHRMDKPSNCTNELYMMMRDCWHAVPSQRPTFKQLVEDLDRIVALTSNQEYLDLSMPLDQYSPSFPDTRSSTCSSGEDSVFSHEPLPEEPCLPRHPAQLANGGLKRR
Experiment [4] has as its target Serine/threonine-protein kinase pim-2 (Homo sapiens, UniProt Q9P1W9). Description: Selectivity interaction (KinomeScan (DiscoverX)) EUB0001619a PIM2. The conditions noted are these: at 1 µM.
In experiment [5] the target is T2, Receptor-interacting serine/threonine-protein kinase 1 (Homo sapiens) (UniProt Q13546).
T2 sequence (whole entry): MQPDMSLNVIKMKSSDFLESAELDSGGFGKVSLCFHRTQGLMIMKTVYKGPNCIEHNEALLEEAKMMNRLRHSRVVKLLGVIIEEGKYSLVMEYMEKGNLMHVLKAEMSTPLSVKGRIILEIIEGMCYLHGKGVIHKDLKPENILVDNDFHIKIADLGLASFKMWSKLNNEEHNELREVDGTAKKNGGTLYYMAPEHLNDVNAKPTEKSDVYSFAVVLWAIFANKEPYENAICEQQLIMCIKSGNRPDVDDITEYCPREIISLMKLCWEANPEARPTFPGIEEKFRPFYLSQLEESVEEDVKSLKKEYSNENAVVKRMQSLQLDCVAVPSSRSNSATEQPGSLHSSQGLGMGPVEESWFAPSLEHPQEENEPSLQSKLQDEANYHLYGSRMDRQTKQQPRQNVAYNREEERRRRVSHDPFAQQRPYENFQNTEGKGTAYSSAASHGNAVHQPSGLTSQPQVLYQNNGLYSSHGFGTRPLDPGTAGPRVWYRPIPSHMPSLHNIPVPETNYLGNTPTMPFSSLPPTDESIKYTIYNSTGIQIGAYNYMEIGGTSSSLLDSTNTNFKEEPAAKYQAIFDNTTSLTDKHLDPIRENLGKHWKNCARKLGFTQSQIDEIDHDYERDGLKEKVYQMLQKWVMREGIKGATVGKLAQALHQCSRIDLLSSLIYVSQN
The experiment in a line: Selectivity interaction (KinomeScan (DiscoverX)) EUB0001049a RIPK1. Particulars: at 1 µM.

Experiment [6] has as its target T3, Serine/threonine-protein kinase BRSK2 (Homo sapiens) (UniProt Q8IWQ3).
T3 sequence (whole entry): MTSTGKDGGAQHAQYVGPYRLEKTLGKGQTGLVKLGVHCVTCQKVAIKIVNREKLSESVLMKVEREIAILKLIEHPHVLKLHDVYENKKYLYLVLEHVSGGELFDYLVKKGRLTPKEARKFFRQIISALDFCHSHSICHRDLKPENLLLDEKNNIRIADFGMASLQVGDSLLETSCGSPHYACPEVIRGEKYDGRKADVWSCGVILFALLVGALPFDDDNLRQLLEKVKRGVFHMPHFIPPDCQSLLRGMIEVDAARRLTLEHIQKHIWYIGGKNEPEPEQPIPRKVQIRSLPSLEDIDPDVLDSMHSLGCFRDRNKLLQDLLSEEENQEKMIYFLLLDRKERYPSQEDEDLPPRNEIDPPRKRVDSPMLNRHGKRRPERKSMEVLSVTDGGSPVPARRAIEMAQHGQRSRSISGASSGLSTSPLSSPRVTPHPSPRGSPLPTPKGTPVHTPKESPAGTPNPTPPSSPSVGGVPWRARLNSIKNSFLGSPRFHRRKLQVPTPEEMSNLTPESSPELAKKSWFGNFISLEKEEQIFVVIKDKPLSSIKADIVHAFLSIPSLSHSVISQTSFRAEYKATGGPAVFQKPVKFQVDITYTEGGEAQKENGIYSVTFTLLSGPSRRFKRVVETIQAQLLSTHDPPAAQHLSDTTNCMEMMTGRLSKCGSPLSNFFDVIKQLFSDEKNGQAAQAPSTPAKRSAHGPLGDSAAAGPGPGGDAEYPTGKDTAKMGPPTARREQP
Description: Selectivity interaction (Upstate Kinase Profiler service (Millipore)) EUB0000056c BRSK2. Particulars: at 1 µM.

Experiment [7] deals with Non-receptor tyrosine-protein kinase TYK2 (Homo sapiens, UniProt P29597). Description: Selectivity interaction (KinomeScan (DiscoverX)) EUB0000595a TYK2. The conditions noted are these: at 10 µM.
Non-receptor tyrosine-protein kinase TYK2, sequence (P29597 whole entry): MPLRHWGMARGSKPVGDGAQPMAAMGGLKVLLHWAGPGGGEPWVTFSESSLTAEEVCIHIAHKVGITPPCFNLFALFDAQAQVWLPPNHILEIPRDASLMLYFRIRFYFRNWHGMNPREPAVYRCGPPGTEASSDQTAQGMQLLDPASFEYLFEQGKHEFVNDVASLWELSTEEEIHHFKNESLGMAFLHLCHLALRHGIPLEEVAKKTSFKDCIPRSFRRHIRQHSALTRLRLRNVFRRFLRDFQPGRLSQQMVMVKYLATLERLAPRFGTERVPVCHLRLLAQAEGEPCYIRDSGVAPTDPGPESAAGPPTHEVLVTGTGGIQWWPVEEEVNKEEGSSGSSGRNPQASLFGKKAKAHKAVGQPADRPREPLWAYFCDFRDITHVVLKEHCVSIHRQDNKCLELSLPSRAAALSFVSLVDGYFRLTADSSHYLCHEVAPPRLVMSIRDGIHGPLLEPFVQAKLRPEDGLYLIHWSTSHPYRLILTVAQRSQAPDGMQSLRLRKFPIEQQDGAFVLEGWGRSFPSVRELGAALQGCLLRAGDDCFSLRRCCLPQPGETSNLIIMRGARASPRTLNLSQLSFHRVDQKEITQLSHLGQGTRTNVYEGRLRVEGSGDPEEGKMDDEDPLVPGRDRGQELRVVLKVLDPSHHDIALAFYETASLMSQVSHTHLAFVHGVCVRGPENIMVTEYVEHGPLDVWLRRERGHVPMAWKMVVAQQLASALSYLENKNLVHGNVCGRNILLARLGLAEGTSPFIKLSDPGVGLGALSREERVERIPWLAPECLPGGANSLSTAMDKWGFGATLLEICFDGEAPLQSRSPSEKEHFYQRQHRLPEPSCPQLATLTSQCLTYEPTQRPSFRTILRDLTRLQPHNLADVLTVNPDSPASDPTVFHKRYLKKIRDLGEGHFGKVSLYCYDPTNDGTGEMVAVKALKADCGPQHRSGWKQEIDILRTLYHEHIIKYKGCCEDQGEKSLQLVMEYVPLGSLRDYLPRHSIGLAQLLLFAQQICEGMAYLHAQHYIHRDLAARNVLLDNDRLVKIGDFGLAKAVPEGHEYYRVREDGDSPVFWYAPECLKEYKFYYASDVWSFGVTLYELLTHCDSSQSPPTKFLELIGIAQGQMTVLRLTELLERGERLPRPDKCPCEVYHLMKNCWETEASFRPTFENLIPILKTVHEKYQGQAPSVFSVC

Serine/threonine-protein kinase pim-2, sequence (Q9P1W9 whole entry, looked up): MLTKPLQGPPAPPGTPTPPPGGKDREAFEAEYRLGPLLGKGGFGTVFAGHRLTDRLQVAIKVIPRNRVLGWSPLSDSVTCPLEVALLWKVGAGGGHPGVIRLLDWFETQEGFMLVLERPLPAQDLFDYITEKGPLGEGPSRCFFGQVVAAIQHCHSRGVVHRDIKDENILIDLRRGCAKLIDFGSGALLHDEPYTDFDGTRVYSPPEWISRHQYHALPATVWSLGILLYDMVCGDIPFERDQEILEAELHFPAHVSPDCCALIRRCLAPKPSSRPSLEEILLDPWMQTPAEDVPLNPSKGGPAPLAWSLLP
RAC-gamma serine/threonine-protein kinase, sequence (Q9Y243 whole entry): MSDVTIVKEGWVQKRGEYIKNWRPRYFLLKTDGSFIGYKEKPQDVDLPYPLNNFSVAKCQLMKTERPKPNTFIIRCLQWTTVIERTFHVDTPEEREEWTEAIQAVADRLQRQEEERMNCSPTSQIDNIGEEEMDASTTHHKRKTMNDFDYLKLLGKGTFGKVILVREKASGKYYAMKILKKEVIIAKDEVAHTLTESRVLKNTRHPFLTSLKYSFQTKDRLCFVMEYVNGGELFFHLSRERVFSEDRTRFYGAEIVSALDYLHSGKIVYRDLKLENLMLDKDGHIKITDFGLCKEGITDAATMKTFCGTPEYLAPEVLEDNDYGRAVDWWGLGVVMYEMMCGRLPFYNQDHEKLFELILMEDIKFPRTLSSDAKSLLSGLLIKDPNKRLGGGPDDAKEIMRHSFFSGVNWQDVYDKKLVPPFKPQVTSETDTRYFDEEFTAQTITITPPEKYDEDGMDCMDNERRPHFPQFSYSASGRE

In turn, `CN(C)C/C=C/C(=O)Nc1ccc(C(=O)N2CCCC(Nc3ncc(Cl)c(-c4c[nH]c5ccccc45)n3)C2)cc1` (configuration not stated) yielded a % of control in experiment [1] of 96%.

Turning to `CNC(=O)Nc1ccc(-c2nc(N3CC4CCC(C3)O4)c3cnn(C4CCC5(CC4)OCCO5)c3n2)cc1`, the % of control in experiment [2] was 76%. The compound `CN(C)CCOc1ccc(-c2nc(-c3ccncc3)c(-c3ccc4c(c3)CC/C4=N\O)[nH]2)cc1` showed a % of control in experiment [3] of 99%.

Compound `N#Cc1cccc(-c2c[nH]c3ncnc(N4CCOCC4)c23)c1` came in with a % of control in experiment [4] of 100%.

Take `COc1cc(Nc2nc(C)cc(-c3cnn4nc(OC)ccc34)n2)cc(C(F)(F)F)c1`: the % of control in experiment [5] came out at 93%. Consider `Cc1ccc(-c2ccc3c(ccc4sc5c(c43)NC[C@@H](C)NC5=O)n2)cn1`, for which, in experiment [6], the % of inhibition amounted to 93%. Take `COCC(=O)NC/C=C/c1ccc2ncnc(Nc3ccc(Oc4ccc(C)nc4)c(C)c3)c2c1` [CP-724714]: in experiment [7], the % of control amounted to 100%.
